Reference: US20090018194A1, “Use of antimicrobial agents derived from alliaceous plants for the prevention and control of crop diseases, post-harvest rot and as environmental disinifectant products” (DMC Research Center, S.L., priority 2007, published 2009)

Key:
[1] = tested on: Candida parapsilosis CCTM 1038; assay: agar diffusion test with impregnated cellulose discs; assay type: cell-based; settings: incl. 6 mm disc
[2] = tested on: Penicillium italicum CECT 2294; assay: as above; assay type: cell-based; settings: incl. 6 mm disc
[3] = tested on: Penicillium digitatum Supplied by Brogdex SA; assay: agar diffusion test, wild phytopathogens isolated from citrus rot; assay type: cell-based; settings: incl. 6 mm disc
FUNGI = assay: environmental disinfection of banana storage and ripening rooms by fogging, air sampling; settings: fogging of 1500 ppm solution; for MICROBE COUNTS FUNGI CFU/dish: 80 liters collected/dish; for % REDUCTION OF ENVIRONMENTAL MICROBIOTA Fungal population: after vs before treatment
Protocol: (§1) A study was conducted to verify the environmental disinfecting capability of the compound PTS in rooms of a fruit and vegetable processing plant, in particular one that handled bananas. For test purposes, three separate rooms of the central were sampled, and the environmental quality was studied before and after the treatment with PTS. First, an environmental sample was taken in each room prior to the treatment, using an […]-Omega air sampling device manufactured by LCB, by suctioning a volume of air set at 80 L which impacted over the different cultivation media selected. The samples were taken in duplicate in the areas to be analyzed. PCA agar medium was used to count the total mesophilic aerobes, and the medium Rose Bengal agar was used to count the fungi. The environmental disinfectant treatment comprised fogging of a 1500 ppm solution of PTS. 5 liters of this solution were fogged for each 1000 m^3 of the room. […] Several hours after the fogging, the sampling operation was repeated in the different rooms that had been treated as described above. […] Once the incubation time had elapsed, the readings were taken by counting the microorganisms that appeared in each type of dish, expressed as cfu/dish.

Total mesophilic AEROBES = assay: as above; settings: fogging of 1500 ppm solution; for MICROBE COUNTS Total mesophilic AEROBES CFU/dish: 80 liters collected/dish; for % REDUCTION OF ENVIRONMENTAL MICROBIOTA Population of total mesophilic aerobes: after vs before treatment
Protocol: as §1

Fusarium sp. (CPC-PT-8) = assay: agar diffusion test, wild fungi isolated from crown rot in bananas; assay type: cell-based; settings: incl. 6 mm disc
Protocol: (§2) A. The “in vitro” antimicrobial activity of these compounds was tested (referenced as PTS and PTSO), at different doses, as well as their activity against a broad spectrum of bacteria, fungi and yeasts. The tests were conducted against standard micro-organisms (reference strains from different collections of standard crops) and also against wild strains isolated from different types of rot and fruits and other affected crops.
(§3) These tests of antimicrobial capacity were conducted according to the agar diffusion technique, using cellulose discs 6 mm in diameter, impregnated with the different doses under study. For the assessment of the anti-fungal capability, the medium Sabouraud glucosate agar 2% was used, inoculated with suspensions of spores prepared to a concentration on the order of 10^8 cells/ml. To assess the antibacterial capability, the cultivation medium Müller-Hinton agar was used, inoculated with suspensions of bacteria prepared to a concentration of 10^6 cells/ml.
(§4) Once the plates were inoculated, the discs previously impregnated with the different test doses of each of the compounds to be analyzed were put in place. The reading was taken after incubation of the plates by measuring the zone of inhibition that appeared, and the result was expressed in mm corresponding to the diameter of the halo that appeared (including the 6 mm of the cellulose disc).
(§5) Once the screening of the anti-microbial capability of the compounds claimed by the invention had been performed over a broad range of reference strains, their efficiency was corroborated against wild strains, which we isolated as specific pathogens that affect different crops of different geographic origins.

[4] = tested on: Colletotrichum sp. (CPC-PC-6); assay: as above; assay type: cell-based; settings: incl. 6 mm disc
Protocol: as §2, §3, §4, §5

[5] = tested on: Candida magnoliae DSMZ 70638; assay: agar diffusion test with impregnated cellulose discs; assay type: cell-based; settings: incl. 6 mm disc
[6] = tested on: Penicillium italicum Wild strain Supplied by UdL-IRTA; assay: agar diffusion test, wild phytopathogens isolated from citrus rot; assay type: cell-based; settings: incl. 6 mm disc
[7] = tested on: Penicillium sp. (CPC-PT-1); assay: agar diffusion test, wild fungi isolated from crown rot in bananas; assay type: cell-based; settings: incl. 6 mm disc
[8] = tested on: Penicillium sp. (CPC-PT-3); assay: as above; assay type: cell-based; settings: incl. 6 mm disc
[9] = tested on: Micrococcus luteus ATCC 15307; assay: agar diffusion test with impregnated cellulose discs; assay type: cell-based; settings: incl. 6 mm disc
[10] = Zone 1 of the ripening room after treatment
[11] = Zone 2 of the ripening room after treatment

CCCS[S+]([O-])CCC (stereo not drawn) [PTS, Propyl Propyl Thiosulfinate]
diameter of the microbial inhibition halo ([1]; 25 ppm): 0 mm | diameter of the microbial inhibition halo ([1]; 50 ppm): 14 mm | diameter of the microbial inhibition halo ([1]; 100 ppm): 17 mm | diameter of the microbial inhibition halo ([2]; 25 ppm): 22 mm | diameter of the microbial inhibition halo ([2]; 50 ppm): 26 mm | diameter of the microbial inhibition halo ([2]; 100 ppm): 34 mm | diameter of the microbial inhibition halo ([3]; 30 ppm): 12 mm | diameter of the microbial inhibition halo ([3]; 60 ppm): 15 mm | diameter of the microbial inhibition halo ([3]; 125 ppm): 20 mm | diameter of the microbial inhibition halo ([3]; 250 ppm): 33 mm | diameter of the microbial inhibition halo ([3]; 500 ppm): 33 mm | diameter of the microbial inhibition halo ([3]; 1000 ppm): 35 mm | MICROBE COUNTS FUNGI CFU/m^3 (FUNGI; Entry room after treatment): 707 CFU/m^3 | MICROBE COUNTS FUNGI CFU/dish (FUNGI; Entry room after treatment): 51 CFU/dish | % REDUCTION OF ENVIRONMENTAL MICROBIOTA Fungal population (FUNGI; Entry room): 70% | MICROBE COUNTS FUNGI CFU/m^3 (FUNGI; [10]): 273 CFU/m^3 | MICROBE COUNTS FUNGI CFU/dish (FUNGI; [10]): 21 CFU/dish | % REDUCTION OF ENVIRONMENTAL MICROBIOTA Fungal population (FUNGI; Zone 1 of the ripening room): 23% | MICROBE COUNTS FUNGI CFU/m^3 (FUNGI; [11]): 328 CFU/m^3 | MICROBE COUNTS FUNGI CFU/dish (FUNGI; [11]): 25 CFU/dish | % REDUCTION OF ENVIRONMENTAL MICROBIOTA Fungal population (FUNGI; Zone 2 of the ripening room): 36% | MICROBE COUNTS Total mesophilic AEROBES CFU/m^3 (Total mesophilic AEROBES; Entry room after treatment): 314 CFU/m^3 | MICROBE COUNTS Total mesophilic AEROBES CFU/dish (Total mesophilic AEROBES; Entry room after treatment): 24 CFU/dish | % REDUCTION OF ENVIRONMENTAL MICROBIOTA Population of total mesophilic aerobes (Total mesophilic AEROBES; Entry room): 65% | MICROBE COUNTS Total mesophilic AEROBES CFU/m^3 (Total mesophilic AEROBES; [10]): 287 CFU/m^3 | MICROBE COUNTS Total mesophilic AEROBES CFU/dish (Total mesophilic AEROBES; [10]): 22 CFU/dish | % REDUCTION OF ENVIRONMENTAL MICROBIOTA Population of total mesophilic aerobes (Total mesophilic AEROBES; Zone 1 of the ripening room): 69% | MICROBE COUNTS Total mesophilic AEROBES CFU/m^3 (Total mesophilic AEROBES; [11]): 1487 CFU/m^3 | MICROBE COUNTS Total mesophilic AEROBES CFU/dish (Total mesophilic AEROBES; [11]): 96 CFU/dish | % REDUCTION OF ENVIRONMENTAL MICROBIOTA Population of total mesophilic aerobes (Total mesophilic AEROBES; Zone 2 of the ripening room): 58% | diameter of the microbial inhibition halo (Fusarium sp. (CPC-PT-8); 30 ppm): 0 mm | diameter of the microbial inhibition halo (Fusarium sp. (CPC-PT-8); 60 ppm): 10 mm | diameter of the microbial inhibition halo (Fusarium sp. (CPC-PT-8); 125 ppm): 12 mm | diameter of the microbial inhibition halo (Fusarium sp. (CPC-PT-8); 250 ppm): 15 mm | diameter of the microbial inhibition halo (Fusarium sp. (CPC-PT-8); 500 ppm): 20 mm | diameter of the microbial inhibition halo (Fusarium sp. (CPC-PT-8); 1000 ppm): 20 mm | diameter of the microbial inhibition halo ([4]; 30 ppm): 20 mm | diameter of the microbial inhibition halo ([4]; 60 ppm): 30 mm | diameter of the microbial inhibition halo ([4]; 125 ppm): 35 mm | diameter of the microbial inhibition halo ([4]; 250 ppm): 47 mm | diameter of the microbial inhibition halo ([4]; 500 ppm): 48 mm | diameter of the microbial inhibition halo ([4]; 1000 ppm): 45 mm | diameter of the microbial inhibition halo ([5]; 25 ppm): 22 mm | diameter of the microbial inhibition halo ([5]; 50 ppm): 30 mm | diameter of the microbial inhibition halo ([5]; 100 ppm): 38 mm | diameter of the microbial inhibition halo ([6]; 30 ppm): 0 mm | diameter of the microbial inhibition halo ([6]; 60 ppm): 0 mm | diameter of the microbial inhibition halo ([6]; 125 ppm): 13 mm | diameter of the microbial inhibition halo ([6]; 250 ppm): 13 mm | diameter of the microbial inhibition halo ([6]; 500 ppm): 15 mm | diameter of the microbial inhibition halo ([6]; 1000 ppm): 20 mm | diameter of the microbial inhibition halo ([7]; 30 ppm): 0 mm | diameter of the microbial inhibition halo ([7]; 60 ppm): 0 mm | diameter of the microbial inhibition halo ([7]; 125 ppm): 11 mm | diameter of the microbial inhibition halo ([7]; 250 ppm): 15 mm | diameter of the microbial inhibition halo ([7]; 500 ppm): 18 mm | diameter of the microbial inhibition halo ([7]; 1000 ppm): 20 mm | diameter of the microbial inhibition halo ([8]; 30 ppm): 0 mm | diameter of the microbial inhibition halo ([8]; 60 ppm): 0 mm | diameter of the microbial inhibition halo ([8]; 125 ppm): 10 mm | diameter of the microbial inhibition halo ([8]; 250 ppm): 13 mm | diameter of the microbial inhibition halo ([8]; 500 ppm): 15 mm | diameter of the microbial inhibition halo ([8]; 1000 ppm): 17 mm | diameter of the microbial inhibition halo ([9]; 25 ppm): 19 mm | diameter of the microbial inhibition halo ([9]; 50 ppm): 25 mm | diameter of the microbial inhibition halo ([9]; 100 ppm): 32 mm
